Data reported in ChEMBL document CHEMBL5360655, “Design, Synthesis, and Biological Evaluation of Novel P2X7 Receptor Antagonists for the Treatment of Septic Acute Kidney Injury” (J Med Chem, 2023).
Calls of active or inactive are those of the source. The calls are words filed in the database; no cut-off is given here.

How the values were obtained:
Mus musculus [1] = assay: (§1) Reno-protective activity against CLP-induced acute kidney injury C57BL/6J mouse model assessed as decrease in NGAL mRNA expression in kidney at 20 mg/kg, ip administered twice at 30 mins prior to CLP operation and 8 hrs post-CLP operation and measured at 16 hrs post-CLP operation by RT-qPCR analysis; type: functional, organism-based; settings: time 16.5 hrs
Mus musculus [2] = assay: as §1, with “Tnfa-gene” for “NGAL mRNA”, “RNA sequencing” for “RT-qPCR”; type: functional, organism-based; settings: time 16.5 hrs
Mus musculus [3] = assay: Reno-protective activity against LPS-induced acute kidney injury C57BL/6J mouse model assessed as decrease in NGAL mRNA expression in kidney at 5 to 20 mg/kg, ip administered twice at 30 mins prior to LPS challenge and 8 hrs post-LPS challenge and measured at 16 hrs post-LPS challenge by RT-qPCR analysis; type: functional, organism-based; settings: dose 5-20 mg/kg, time 16.5 hrs
[4] = target: T1, P2X purinoceptor 7 (Homo sapiens) (UniProt Q99572); assay: Antagonist activity at P2X7 receptor in human THP-1 cells assessed as inhibition of Bz-ATP-evoked channel current at 2 uM by whole-cell patch clamp analysis; type: cell-based; settings: filed as antagonist
T1 sequence (whole entry): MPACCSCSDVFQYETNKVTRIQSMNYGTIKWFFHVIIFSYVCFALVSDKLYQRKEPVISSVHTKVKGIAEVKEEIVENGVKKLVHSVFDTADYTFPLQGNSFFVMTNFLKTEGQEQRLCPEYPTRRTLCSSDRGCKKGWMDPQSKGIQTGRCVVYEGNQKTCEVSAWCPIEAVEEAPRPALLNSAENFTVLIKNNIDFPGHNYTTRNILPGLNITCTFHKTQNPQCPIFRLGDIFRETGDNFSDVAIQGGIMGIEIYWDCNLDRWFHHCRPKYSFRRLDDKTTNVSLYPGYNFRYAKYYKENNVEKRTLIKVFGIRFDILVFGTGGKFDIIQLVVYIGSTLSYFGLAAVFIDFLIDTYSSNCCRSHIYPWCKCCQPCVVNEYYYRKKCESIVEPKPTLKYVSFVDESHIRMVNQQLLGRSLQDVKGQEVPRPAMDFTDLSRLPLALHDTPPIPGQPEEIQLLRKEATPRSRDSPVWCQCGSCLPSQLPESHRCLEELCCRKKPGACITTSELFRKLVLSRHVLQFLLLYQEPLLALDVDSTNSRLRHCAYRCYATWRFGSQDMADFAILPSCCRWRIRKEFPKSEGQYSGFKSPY

Cytochrome P450 2D6 = Cytochrome P450 2D6 (Homo sapiens, UniProt P10635); assay: Inhibition of CYP2D6 in human liver microsomes using dextromethorphan as substrate upto 100 uM incubated for 10 mins in presence of NADPH by LC-MS/MS analysis; type: ADME, Microsome
Cytochrome P450 2D6, sequence (P10635 whole entry): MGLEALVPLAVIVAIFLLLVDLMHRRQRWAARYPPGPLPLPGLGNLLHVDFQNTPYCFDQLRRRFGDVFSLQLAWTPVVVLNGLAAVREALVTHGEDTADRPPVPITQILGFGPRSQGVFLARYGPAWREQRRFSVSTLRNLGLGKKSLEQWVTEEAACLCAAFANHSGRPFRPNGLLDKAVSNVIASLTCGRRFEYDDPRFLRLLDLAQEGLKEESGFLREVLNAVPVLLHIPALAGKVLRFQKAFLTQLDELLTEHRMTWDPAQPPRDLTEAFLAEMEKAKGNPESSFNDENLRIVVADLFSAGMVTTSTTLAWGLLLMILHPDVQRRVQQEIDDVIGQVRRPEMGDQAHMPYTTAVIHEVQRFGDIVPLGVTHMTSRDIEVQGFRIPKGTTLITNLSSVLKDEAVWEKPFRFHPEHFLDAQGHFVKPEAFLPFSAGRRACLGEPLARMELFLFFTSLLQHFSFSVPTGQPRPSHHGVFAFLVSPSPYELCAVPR

THP-1 [5] = assay: Inhibition of ATP-induced mitochondrial damage in human THP-1 cells at […] pretreated with compound for 3 hrs in presence of LPS followed by incubation with ATP for 1 hr by MitoTracker dye based fluorescence analysis; type: functional, cell-based; settings: dose 2.5 µM, time 4.0 hrs
[6] = Cmax in BALB/c mouse at 10 mg/kg, iv measured for 24 hrs by LC-MS/MS analysis; type: ADME, organism-based; set-up: time 24 hrs, dose 10 mg/kg, route iv; settings: in vivo
Mus musculus [7] = assay: Reno-protective activity against LPS-induced acute kidney injury C57BL/6J mouse model assessed as decrease in BUN level at 10 mg/kg, ip administered twice at 30 mins prior to LPS challenge and 8 hrs post-LPS challenge and measured at 16 hrs post-LPS challenge; type: functional, organism-based; settings: time 16.5 hrs
Mus musculus [8] = assay: Reno-protective activity against LPS-induced acute kidney injury C57BL/6J mouse model assessed as decrease in BUN level at 5 to 20 mg/kg, ip administered twice at 30 mins prior to LPS challenge and 8 hrs post-LPS challenge and measured at 16 hrs post-LPS challenge; type: functional, organism-based; settings: dose 5-20 mg/kg, time 16.5 hrs
Mus musculus [9] = assay: Reno-protective activity against CLP-induced acute kidney injury C57BL/6J mouse model assessed as decrease in serum […] level at 20 mg/kg, ip administered twice at 30 mins prior to CLP operation and 8 hrs post-CLP operation and measured at 16 hrs post-CLP operation; type: functional, organism-based; settings: time 16.5 hrs
Mus musculus [10] = assay: Reno-protective activity against LPS-induced acute kidney injury C57BL/6J mouse model assessed as decrease in serum […] level at 5 to 20 mg/kg, ip administered twice at 30 mins prior to LPS challenge and 8 hrs post-LPS challenge and measured at 16 hrs post-LPS challenge; type: functional, organism-based; settings: dose 5-20 mg/kg, time 16.5 hrs
[11] = Clearance in BALB/c mouse at 10 mg/kg, po measured for 24 hrs by LC-MS/MS analysis; type: ADME, organism-based; settings: in vivo
Mus musculus [12] = assay: as §1, with “caspase-1” for “NGAL”; type: functional, organism-based; settings: time 16.5 hrs
[13] = Toxicity in C57BL/6J mouse assessed as pathological changes in spleen at 20 mg/kg, ip administered twice at 0 hrs and 8 hrs and measured after 16 hrs by Hematoxylin-Eosin staining based analysis; type: organism-based; settings: in vivo
Mus musculus [14] = assay: as §1, with “NLRP3” for “NGAL”; type: functional, organism-based; settings: time 16.5 hrs
THP-1 [15] = assay: Cytotoxicity against human THP-1 cells assessed as effect on cell viability at 1 to 4 uM incubated for 2 hrs by CCK8 assay; type: toxicity, cell-based; settings: thp-1, 2 h, dose 1-4 µM
Mus musculus [16] = assay: as §1, with “NLRP3 protein” for “NGAL mRNA”, “western blot” for “RT-qPCR”; type: functional, organism-based; settings: time 16.5 hrs
THP-1 [17] = assay: Inhibition of ATP-induced ROS production in human THP-1 cells at […] pretreated with LPS for 3 hrs followed by incubation with compound for 40 mins followed by treatment with ATP for 1 hr by DCFH-DA staining based fluorescence microscopic analysis; type: functional, cell-based; settings: dose 2.5 µM, time 100.0 min
P2X purinoceptor 7 = target: T2, P2X purinoceptor 7 (Homo sapiens, UniProt Q99572); assay: Antagonist activity at human P2X7 receptor expressed in HEK293 cells assessed as inhibition of ATP-induced receptor pore formation by propidium iodide dye uptake based fluorescence analysis; type: cell-based
T2 sequence (Q99572 whole entry): T1 sequence (whole entry)

[18] = Toxicity in C57BL/6J mouse assessed as pathological changes in heart at 20 mg/kg, ip administered twice at 0 hrs and 8 hrs and measured after 16 hrs by Hematoxylin-Eosin staining based analysis; type: organism-based; settings: in vivo

With `CS(=O)(=O)c1ccc(-c2nc(C(=O)NCc3cn(-c4cc(Br)ccn4)nn3)cs2)cc1` the Activity (Mus musculus [1]) was “Active”, the Activity (Mus musculus [2]) was “Active” and the Activity (Mus musculus [3]) was “Dose-Dependent Effect”. For the same molecule, the inhibition [4] was 56.1%, the “inhibition (INH)” value (Cytochrome P450 2D6) was “Not Active” and the inhibition (THP-1 [5]) was “Active”. The Cmax [6] was 4.73 µg/mL, the Activity (Mus musculus [7]) was “Active” and the Activity (Mus musculus [8]) was “Dose-Dependent Effect”. For the same molecule, the Activity (Mus musculus [9]) was “Active”, the Activity (Mus musculus [10]) was “Dose-Dependent Effect” and the CL/F [11] was 1.55 L/h/kg. The Activity (Mus musculus [12]) was “Active”, the Activity [13] was “Non-Toxic” and the Activity (Mus musculus [14]) was “Active”. For the same molecule, the Activity (THP-1 [15]) was “Non-Toxic”, the Activity (Mus musculus [16]) was “Active” and the inhibition (THP-1 [17]) was “Active”. The IC50 (P2X purinoceptor 7) was 0.0647 µM and the Activity [18] was “Non-Toxic”.
